In patent US20060069132A1, “Azolecarboxamide herbicides” (priority 2004, published 2006):

Assays:
pigweed = test: Test C pre-/postemergence herbicide test; format: in vivo, Amaranthus retroflexus; conditions: preemergence
How it was run: (§1)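 Visual ratings on a 0–100 scale (100 = complete control) made versus untreated controls after 12 to 14 greenhouse days. Test chemicals, formulated in surfactant-containing non-phytotoxic solvent, applied preemergence to planted seeds or postemergence to 1- to 4-leaf plants (2 to 18 cm).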

common ragweed = test: Test C pre-/postemergence herbicide test; format: in vivo, Ambrosia elatior; design: key to Plant response rating, Ragweed: 0 = no effect, 100 = complete control; conditions: preemergence; for Plant response rating (0 = no effect, 100 = complete control), Ragweed: 125 g ai/ha
How it was run: as §1

large crabgrass = test: Test C pre-/postemergence herbicide test; format: in vivo, Digitaria sanguinalis; conditions: preemergence
How it was run: as §1

lambsquarters = test: Test C pre-/postemergence herbicide test; format: in vivo, Chenopodium album; conditions: preemergence
How it was run: as §1

[1] = test system: common (oilseed) sunflower; test: Test C pre-/postemergence herbicide test; format: in vivo, Helianthus annuus; conditions: preemergence
How it was run: as §1

ducksalad = test: Test C flooded paddy test; format: in vivo, Heteranthera limosa; conditions: for Plant response rating, Ducksalad: 500 g ai/ha, visual rating after 12 to 14 days
guineagrass = test: Test E pre-/postemergence herbicide test; format: in vivo, Panicum maximum; conditions: Preemergence
Source text: (§2) Seeds of plant species selected from bipinnate beggarticks (Bidens bipinnata L.), hairy beggarticks (Bidens radiata Thuill.), bermudagrass (Cynodon dactylon (L.) Pers.), Surinam grass (Urochloa decumbens (Staph) R. D. Webster, previously named Brachiaria decumbens Stapf), large crabgrass (Digitaria sanguinalis (L.) Scop.), green foxtail (Setaria viridis (L.) P. Beauv.), goosegrass (Eleusine indica (L.) Gaertn.), johnsongrass (Sorghum halepense (L.) Pers.), kochia (Kochia scoparia (L.) Schrad.), pitted morningglory (Ipomoea lacunosa L.), purple nutsedge (Cyperus rotundus L.), common ragweed (Ambrosia elatior L.), mustard (Brassica nigra (L.) W. D. J. Koch), guineagrass (Panicum maximum Jacq.), dallisgrass (Paspalum dilatatum Poir.), barnyardgrass (Echinochloa crus-galli (L). P. Beauv.), southern sandbur (Cenchrus echinatus L.), common sowthistle (Sonchus oleraceous L.), prickly sida (Sida spinosa L.), Italian ryegrass (Lolium multiflorum Lam.), common purslane (Portulaca oleracea L.), broadleaf signalgrass (Brachiaria platyphylla (Griseb.) Nash), common groundsel (Senecio vulgaris L.), common chickweed (Stellaria media (L.) Vill/Cyr.), tropical spiderwort (Commelina benghalensis L.), annual bluegrass (Poa annua L.), downy bromegrass (Bromus tectorum L.), itchgrass (Rottboellia cochinchinensis (L.) L.f.), quackgrass (Elytrigia repens (L.) Nevski), Canada horseweed (Erigeron Canadensis L.), field bindweed (Convolvulus arvensis L.), spotted spurge (Euphorbia maculata L.), common mallow (Malva sylvestris (=s silvestris) L.), and Russian thistle (Salsola kali L. ssp. Ruthenica (Iljin) Soo) were planted and treated preemergence with test chemicals formulated in a non-phytotoxic solvent mixture which included a surfactant.
(§3) At the same time, plants selected from these weed species were treated with postemergence applications of some of the test chemicals formulated in the same manner. Plants ranged in height from 2 to 18 cm (1- to 4-leaf stage) for postemergence treatments. Treated plants and controls were maintained in a greenhouse for 12 to 14 days, after which time all species were compared to controls and visually evaluated. Plant response ratings, summarized in Table E, are based on a scale of 0 to 100 where 0 is no effect and 100 is complete control. A dash (-) response means no test result.

southern sandbur = test: Test E pre-/postemergence herbicide test; format: in vivo, Cenchrus echinatus; conditions: Preemergence
Source text: as §2, §3

[2] = 125 g ai/ha, scale 0 (no effect) to 100 (complete control), visual, 12 to 14 days
[3] = 125 g ai/ha, scale 0 to 100 (0 no effect, 100 complete control)
[4] = 250 g ai/ha, scale of 0 to 100, 0 is no effect, 100 is complete control
[5] = scale 0 to 100 (0 no effect, 100 complete control)
[6] = 500 g ai/ha, scale 0 to 100 (0 no effect, 100 complete control), visual, 12 to 14 days
[7] = 250 g ai/ha, scale 0 (no effect) to 100 (complete control)

SMILES | Plant response rating, Pigweed (pigweed; 62 g ai/ha, scale 0 to 100) | Plant response rating, Pigweed (pigweed; 250 g ai/ha, scale 0-100) | Plant response rating, Ragweed (common ragweed; 62 g ai/ha, scale 0 to 100) | Plant response rating, Ragweed (common ragweed; 250 g ai/ha, scale 0-100) | Plant response rating, Crabgrass, Large (large crabgrass; 62 g ai/ha, scale 0 to 100) | Plant response rating, Crabgrass, Large (large crabgrass; 250 g ai/ha, scale 0-100) | Plant response rating, Lambsquarters (lambsquarters; 62 g ai/ha, scale 0 to 100) | Plant response rating, Lambsquarters (lambsquarters; 250 g ai/ha, scale 0-100) | Plant response rating, Sunflower ([1]; 62 g ai/ha, scale 0 to 100) | Plant response rating, Sunflower ([1]; 250 g ai/ha, scale 0-100) | Ducksalad plant response rating (ducksalad; 62 g ai/ha, scale 0 to 100) | Ducksalad plant response rating (ducksalad; [3]) | Ducksalad plant response rating (ducksalad; [4]) | Plant response rating, Ducksalad (ducksalad; [5]) | Plant response rating, Pigweed (pigweed; [6]) | Plant response rating, Ragweed (common ragweed; [6]) | Plant response rating, Crabgrass, Large (large crabgrass; [6]) | Plant response rating, Lambsquarters (lambsquarters; [6]) | Plant response rating, Sunflower [1, 6] | Plant response rating (0 = no effect, 100 = complete control), Ragweed (common ragweed) | other results
CCNC(=O)c1ccc(F)c(NC(=O)c2cc(C3(C)CC3)nn2CC)c1 [Compound 300] | 100 | 100 | 5 | 10 | 100 | 100 | 100 | 100 | 0 | 5 | 75 | 80 | 85 | 90 | – | – | – | – | – | – | Plant response rating, Pigweed (pigweed; [2]): 100; Plant response rating, Crabgrass, Large (large crabgrass; [2]): 100; Plant response rating, Lambsquarters (lambsquarters; [2]): 100
CCn1nc(C2(C)CC2)cc1C(=O)Nc1cc(C(=O)N2CC=CC2)ccc1F [Compound 301] | 100 | 100 | 10 | 65 | 90 | 100 | 100 | 100 | 0 | 0 | 85 | 90 | 90 | 95 | 100 | 70 | 100 | 100 | 0 | – | Plant response rating, Pigweed (pigweed; [2]): 100; Plant response rating, Crabgrass, Large (large crabgrass; [2]): 100; Plant response rating, Lambsquarters (lambsquarters; [2]): 100
C=CCNC(=O)c1cccc(NC(=O)c2nn(C(C)C)nc2CC)c1 [Compound 382] | 95 | 100 | 20 | 90 | 95 | 100 | 90 | 100 | 0 | 0 | 25 | 65 | 80 | 85 | 100 | 100 | 100 | 100 | 20 | 65 | Plant response rating (0 = no effect, 100 = complete control), Pigweed (pigweed; 125 g ai/ha): 95; Plant response rating (0 = no effect, 100 = complete control), Crabgrass, Large (large crabgrass; 125 g ai/ha): 100; Plant response rating (0 = no effect, 100 = complete control), Lambsquarters (lambsquarters; 125 g ai/ha): 100
CCc1nn(C(C)C)nc1C(=O)Nc1cccc(C(=O)N2CCCCC2)c1 [Compound 385] | 80 | 100 | 0 | 90 | 90 | 100 | 75 | 100 | – | – | 0 | – | 70 | 75 | 100 | 95 | 100 | 100 | – | 20 | Plant response rating (0 = no effect, 100 = complete control), Pigweed (pigweed; 125 g ai/ha): 100; Plant response rating, Guineagrass (guineagrass; 125 g ai/ha, scale 0 to 100): 60; Plant response rating, Guineagrass (guineagrass; [7]): 100; Plant response rating (0 = no effect, 100 = complete control), Crabgrass, Large (large crabgrass; 125 g ai/ha): 95; Plant response rating (0 = no effect, 100 = complete control), Lambsquarters (lambsquarters; 125 g ai/ha): 100; Plant response rating, Sandbur (southern sandbur; 62 g ai/ha, scale 0 to 100): 0; Plant response rating, Sandbur (southern sandbur; 125 g ai/ha, scale 0 to 100): 10; Plant response rating, Sandbur (southern sandbur; [7]): 40
CCc1nn(C(C)C)nc1C(=O)Nc1cccc(C(=S)N(C)C)c1 [Compound 409] | 100 | – | 45 | – | 85 | 95 | 100 | 100 | 0 | – | 30 | 30 | 80 | 85 | 100 | 95 | 95 | 100 | 55 | 85 | Plant response rating (0 = no effect, 100 = complete control), Crabgrass, Large (large crabgrass; 125 g ai/ha): 95; Plant response rating (0 = no effect, 100 = complete control), Sunflower ([1]; 125 g ai/ha): 5
